The values below are quoted from earlier work in patent publication US20250170078A1, “STABLE PHARMACEUTICAL COMPOSITIONS OF HYDROXYUREA” (Slayback Pharma LLC., priority 2022, published 2025).

The conditions of data set [1]: oral.
For data set [2] the following is noted: on its own.
The conditions of data set [3]: patients, dose escalation based on blood counts.
Assay in data set [4]: not given
This is another data set of the same source.

Each structure is given as a SMILES string.

As to `NC(=O)NO` [Hydroxyurea], the solubility in water result is “freely soluble”. For the same compound, in data set [1], the “absorption from the gastrointestinal tract” value is given as “almost completely absorbed”. Also, the antimicrobial activity entry in data set [2] is on record as “high level of antimicrobial activity”. For the same compound, the maximum tolerable dose in data set [3] is listed as 35 mg/kg/day. For the same compound, the “stability in aqueous solutions” value in data set [4] is “poor stability”.
